Where a name gives a salt, the structure may show the parent alone.
Tests used:
JNK = test system: T1, JNK; experiment: JNK Assay in vitro (phosphorylation of GST-ATF2 (19-96) with [γ-33P] ATP); assay type: biochemical; details: JNK isoform not stated for Table 1 (method describes human JNK1α1, JNK2α2, JNK3); Km concentrations of ATP and substrate
T1 construct: Human JNK2α2 assay contains 1 nM enzyme; Human JNK1α1 assay contains 2 nM enzyme
Experimental: JNK activity was measured by phosphorylation of GST-ATF2 (19-96) with [γ-^33P] ATP. The enzyme reaction was conducted at Km concentrations of ATP and the substrate at final volume of 40 μl in buffer containing 25 mM HEPES, pH 7.5, 2 mM dithiothreitol, 150 mM NaCl, 20 mM MgCl2, 0.001% Tween® 20, 0.1% BSA and 10% DMSO. Human JNK2α2 assay contains 1 nM enzyme, 1 μM ATF2, 8 μM ATP with 1 uCi [γ-^33P] ATP. Human JNK1α1 assay contains 2 nM enzyme, 1 μM ATF2, 6 μM ATP with 1 μCi [γ-^33P] ATP. Human JNK3 (Upstate Biotech #14-501M) assay contains 2 nM enzyme, 1 μM ATF2, 4 μM ATP with 1 μCi [γ-^33P] ATP. The enzyme assay was carried out in the presence or absence of several compound concentrations. JNK and compound were pre-incubated for 10 min., followed by initiation of the enzymatic reaction by adding ATP and the substrate. The reaction mixture was incubated at 30° C. for 30 min. At the end of incubation, the reaction was terminated by transferring 25 μl of the reaction mixture to 150 μl of 10% glutathione Sepharose® slurry (Amersham #27-4574-01) containing 135 mM EDTA. The reaction product was captured on the affinity resin, and washed on a filtration plate (Millipore, MABVNOB50) with phosphate buffered saline for six times to remove free radionucleotide. The incorporation of ^33P into ATF2 was quantified on a microplate scintillation counter (Packard Topcount). Compound inhibition potency on JNK was measured by IC50 value generated from ten concentration inhibition curves fitted into the 3-parameter model: % inhibition=Maximum/(1+(IC50/[Inhibitor])^slope). Data were analyzed on Microsoft Excel for parameter estimation.

Structure (SMILES) | melting point [°C] | IC50 (JNK) [nM]
C[C@@H]1CN(C(=O)[C@H]2CC[C@H](Nc3nccc(-n4ncc5c(OCCCS(C)(=O)=O)cccc54)n3)CC2)CCN1 (as salt: HCl) [Compound 24, (4-{4-[4-(3-Methanesulfonyl-propoxy)-indazol-1-yl]-pyrimidin-2-ylamino}-cyclohexyl)-((R)-3-methyl-piperazin-1-yl)-methanone] | 245 to 250 | 
C[C@H]1CN(C(=O)[C@H]2CC[C@H](Nc3nccc(-n4ncc5c(OCC6CCS(=O)(=O)C6)cccc54)n3)CC2)CCN1 (stereo partly drawn) (as salt: HCl) [Compound 25, (4-{4-[4-(1,1-Dioxo-tetrahydro-1λ^6-thiophen-3-ylmethoxy)-indazol-1-yl]-pyrimidin-2-ylamino}-cyclohexyl)-((S)-3-methyl-piperazin-1-yl)-methanone] | 245 to 250 | 
CC1(C)CN(C(=O)[C@H]2CC[C@H](Nc3nccc(-n4ccc5c(OCC6CCS(=O)(=O)C6)cccc54)n3)CC2)CCN1 (stereo partly drawn) (as salt: HCl) [Compound 28, (3,3-Dimethyl-piperazin-1-yl)-(4-{4-[4-(1,1-dioxo-tetrahydro-1λ^6-thiophen-3-ylmethoxy)-indol-1-yl]-pyrimidin-2-ylamino}-cyclohexyl)-methanone] | > 300 | 
CCOC1CC2CCC(C1)N2C(=O)[C@H]1CC[C@H](Nc2nccc(-n3ccc4c(OCCCS(C)(=O)=O)cccc43)n2)CC1 (stereo partly drawn) (as salt: salt) [Compound 26, (3-Ethoxy-8-aza-bicyclo[3.2.1]oct-8-yl)-(4-{4-[4-(3-methanesulfonyl-propoxy)-indol-1-yl]-pyrimidin-2-ylamino}-cyclohexyl)-methanone; compound with formic acid] | 125 to 130 | 
CS(=O)(=O)CCCOc1cccc2c1ccn2-c1ccnc(N[C@H]2CC[C@H](C(=O)N3CCC[C@H](C(=O)O)C3)CC2)n1 [Compound 4, (S)-1-(4-{4-[4-(3-Methanesulfonyl-propoxy)-indol-1-yl]-pyrimidin-2-ylamino}-cyclohexanecarbonyl)-piperidine-3-carboxylic acid] | 270 to 276 | 107
CS(=O)(=O)CCCOc1cccc2c1ccn2-c1ccnc(N[C@H]2CC[C@H](C(=O)N3CCC(C(N)=O)CC3)CC2)n1 [Compound 5, 1-(4-{4-[4-(3-Methanesulfonyl-propoxy)-indol-1-yl]-pyrimidin-2-ylamino}-cyclohexanecarbonyl)-piperidine-4-carboxylic acid amide] | 219 to 221 | 91.7
CC(C)(O)C1CCN(C(=O)[C@H]2CC[C@H](Nc3nccc(-n4ccc5c(OCCCS(C)(=O)=O)cccc54)n3)CC2)CC1 [Compound 6, [4-(1-Hydroxy-1-methyl-ethyl)-piperidin-1-yl]-(4-{4-[4-(3-methanesulfonyl-propoxy)-indol-1-yl]-pyrimidin-2-ylamino}-cyclohexyl)-methanone] | 196 to 198 | 86
O=C(O)C1CCN(C(=O)[C@H]2CC[C@H](Nc3nccc(-n4ccc5c(OCC6CCS(=O)(=O)C6)cccc54)n3)CC2)CC1 (stereo partly drawn) [Compound 8, 1-(4-{4-[4-(1,1-Dioxo-tetrahydro-1λ^6-thiophen-3-ylmethoxy)-indol-1-yl]-pyrimidin-2-ylamino}-cyclohexanecarbonyl)-piperidine-4-carboxylic acid] | 172 to 174 | 70.8
CCN1CC[C@@H](NC(=O)[C@H]2CC[C@H](Nc3nccc(-n4ccc5c(OCCCS(C)(=O)=O)cccc54)n3)CC2)C1 [Compound 12, 4-{4-[4-(3-Methanesulfonyl-propoxy)-indol-1-yl]-pyrimidin-2-ylamino}-cyclohexanecarboxylic acid ((R)-1-ethyl-pyrrolidin-3-yl)-amide] | 229 to 231 | 93.8
CC1(C(=O)O)CCN(C(=O)[C@H]2CC[C@H](Nc3nccc(-n4ccc5c(OCCCS(C)(=O)=O)cccc54)n3)CC2)CC1 [Compound 18, 1-(4-{4-[4-(3-Methanesulfonyl-propoxy)-indol-1-yl]-pyrimidin-2-ylamino}-cyclohexanecarbonyl)-4-methyl-piperidine-4-carboxylic acid] | 174 | 153

Second part, the molecule after the results:

melting point [°C] | IC50 (JNK) [nM] | Structure (SMILES)
180 to 185 |  | CCN1CCC[C@@H](NC(=O)[C@H]2CC[C@H](Nc3nccc(-n4ccc5c(OCCCS(C)(=O)=O)cccc54)n3)CC2)C1 (as salt: HCl) [Compound 15, 4-{4-[4-(3-Methanesulfonyl-propoxy)-indol-1-yl]-pyrimidin-2-ylamino}-cyclohexanecarboxylic acid ((R)-1-ethyl-piperidin-3-yl)-amide]
205 to 210 |  | CCN1CCCC(NC(=O)[C@H]2CC[C@H](Nc3nccc(-n4ccc5c(OCC6CCS(=O)(=O)C6)cccc54)n3)CC2)C1 (stereo partly drawn) (as salt: HCl) [Compound 29, 4-{4-[4-(1,1-Dioxo-tetrahydro-1λ^6-thiophen-3-ylmethoxy)-indol-1-yl]-pyrimidin-2-ylamino}-cyclohexanecarboxylic acid (1-ethyl-piperidin-3-yl)-amide]
185 to 190 |  | CCCN1CCC[C@H](NC(=O)[C@H]2CC[C@H](Nc3nccc(-n4ccc5c(OCCCS(C)(=O)=O)cccc54)n3)CC2)C1 (stereo in doubt) (as salt: HCl) [Compound 14, 4-{4-[4-(3-Methanesulfonyl-propoxy)-indol-1-yl]-pyrimidin-2-ylamino}-cyclohexanecarboxylic acid ((R)-1-propyl-piperidin-3-yl)-amide]
175 to 177 | 550 | CCOC(=O)CC1CCN(C(=O)[C@H]2CC[C@H](Nc3nccc(-n4ccc5c(OCCCS(C)(=O)=O)cccc54)n3)CC2)CC1 [Compound 1, [1-(4-{4-[4-(3-Methanesulfonyl-propoxy)-indol-1-yl]-pyrimidin-2-ylamino}-cyclohexanecarbonyl)-piperidin-4-yl]-acetic acid ethyl ester]
209 to 211 | 51.4 | CCOC(=O)C1CCN(C(=O)[C@H]2CC[C@H](Nc3nccc(-n4ccc5c(OCC6CCS(=O)(=O)C6)cccc54)n3)CC2)CC1 (stereo partly drawn) [Compound 7, 1-(4-{4-[4-(1,1-Dioxo-tetrahydro-1λ^6-thiophen-3-ylmethoxy)-indol-1-yl]-pyrimidin-2-ylamino}-cyclohexanecarbonyl)-piperidine-4-carboxylic acid ethyl ester]
171 to 173 | 58.4 | CCOC(=O)C1(C)CCN(C(=O)[C@H]2CC[C@H](Nc3nccc(-n4ccc5c(OCCCS(C)(=O)=O)cccc54)n3)CC2)CC1 [Compound 10, 1-(4-{4-[4-(3-Methanesulfonyl-propoxy)-indol-1-yl]-pyrimidin-2-ylamino}-cyclohexanecarbonyl)-4-methyl-piperidine-4-carboxylic acid ethyl ester]
185 to 190 | 163 | CCCN1CCC[C@@H](NC(=O)[C@H]2CC[C@H](Nc3nccc(-n4ccc5c(OCCCS(C)(=O)=O)cccc54)n3)CC2)C1 [Compound 16, 4-{4-[4-(3-Methanesuflonyl-propoxy)-indol-1-yl]-pyrimidin-2-ylamino}-cyclohexanecarboxylic acid ((S)-1-propyl-piperidin-3-yl)-amide]

From patent US8642601B2, “Inhibitors of JNK” (Roche Palo Alto LLC, priority 2010, dated 2014)
